Test results published in ChEMBL document CHEMBL5154926, “Discovery of a Novel Series of Imipridone Compounds as Homo sapiens Caseinolytic Protease P Agonists with Potent Antitumor Activities In Vitro and In Vivo” (J Med Chem, 2022).
Calls of active or inactive are those of the source. The rule behind the calls is not given here.

What was measured:
A549 = experiment: Antiproliferative activity against human A549 cells incubated for 48 hrs by CCK-8 assay; format: functional, cell-based; conditions: A549, 48 h
SW480 = experiment: cells; conditions: Homo sapiens, SW480, 48 h
Description: Antiproliferative activity against human SW480 cells incubated for 48 hrs by CCK-8 assay

HCT-116 [1] = experiment: cells; conditions: Homo sapiens, HCT-116, 48 h
Description: Antiproliferative activity against human HCT-116 cells incubated for 48 hrs by CCK-8 assay

HCT-116 [2] = experiment: Potency index, ratio of ONC201 IC50 to test compound IC50 for antiproliferative activity against human HCT-116 cells by CCK-8 assay; format: functional
[3] = Antiproliferative activity against human HEK293 cells incubated for 48 hrs by CCK-8 assay; format: toxicity, cell-based
[4] = Antiproliferative activity against rat H9c2 cells incubated for 48 hrs by CCK-8 assay; format: toxicity, cell-based
Raji = experiment: Antiproliferative activity against human Raji cells incubated for 48 hrs by CCK-8 assay; format: functional, cell-based
DLD-1 = experiment: cells; conditions: Homo sapiens, DLD-1, 48 h
Description: Antiproliferative activity against human DLD-1 cells incubated for 48 hrs by CCK-8 assay

HT-29 = experiment: cells; conditions: Homo sapiens, HT-29, 48 h
Description: Antiproliferative activity against human HT-29 cells incubated for 48 hrs by CCK-8 assay

SW-620 = experiment: cells; conditions: Homo sapiens, SW-620, 48 h
Description: Antiproliferative activity against human SW-620 cells incubated for 48 hrs by CCK-8 assay

HCT-15 = experiment: cells; conditions: Homo sapiens, HCT-15, 48 h
Description: Antiproliferative activity against human HCT-15 cells incubated for 48 hrs by CCK-8 assay

U-251 = experiment: Antiproliferative activity against human U-251 cells incubated for 48 hrs by CCK-8 assay; format: functional, cell-based; conditions: U-251, 48 h
MDA-MB-231 = experiment: Antiproliferative activity against human MDA-MB-231 cells incubated for 48 hrs by CCK-8 assay; format: functional, cell-based; conditions: MDA-MB-231, 48 h
[5] = MRT (0 to 24 hrs) in Sprague-Dawley rat plasma at 5 mg/kg, iv after 0.083 to 24 hrs by LC-MS analysis; format: ADME, organism-based; conditions: time 0.083-24 hrs
HCT-116 [6] = experiment: Antitumor activity in human HCT-116 cells xenografted in BALB/c nude mouse assessed tumor growth inhibition at 10 mg/kg, po administered twice a week for 19 days and measured every other day; format: functional; conditions: HCT-116, 456 h, time 19 day, read-out: TGI
[7] = MRT (0 to 24 hrs) in Sprague-Dawley rat plasma at 15 mg/kg, po after 0.25 to 24 hrs by LC-MS analysis; format: ADME, organism-based; conditions: time 0.25-24 hrs
[8] = Acute toxicity in BALB/c mouse assessed as change in AST level in blood at 100 mg/kg, ig administered as single dose measured after 14 days; format: organism-based; conditions: in vivo, po, 336 h, time 14 day
HCT-116 [9] = experiment: Antitumor activity in human HCT-116 cells xenografted in BALB/c nude mouse assessed tumor growth inhibition at 5 mg/kg, po administered twice a week for 19 days and measured every other day; format: functional; conditions: HCT-116, 456 h, time 19 day, read-out: TGI
[10] = Acute toxicity in BALB/c mouse assessed as pathological damage in kidney at 100 mg/kg, ig administered as single dose measured after 14 days by hematoxylin and eosin staining method; format: organism-based; conditions: in vivo, po, 336 h, time 14 day
[11] = Acute toxicity in BALB/c mouse assessed as pathological damage in lung at 100 mg/kg, ig administered as single dose measured after 14 days by hematoxylin and eosin staining method; format: organism-based; conditions: in vivo, po, 336 h, time 14 day
[12] = Cmax in Sprague-Dawley rat plasma at 5 mg/kg, iv after 0.083 to 24 hrs by LC-MS analysis; format: ADME, organism-based; design: dose 5 mg/kg, time 0.083-24 hrs, route iv
[13] = Terminal half life in Sprague-Dawley rat plasma at 5 mg/kg, iv after 0.083 to 24 hrs by LC-MS analysis; format: ADME, organism-based; conditions: time 0.083-24 hrs, read-out: beta t1/2 (converted)
[14] = Tmax in Sprague-Dawley rat plasma at 15 mg/kg, po after 0.25 to 24 hrs by LC-MS analysis; format: ADME, organism-based; conditions: time 0.25-24 hrs
[15] = Acute toxicity in BALB/c mouse assessed as change in CREA level in blood at 100 mg/kg, ig administered as single dose measured after 14 days; format: organism-based; conditions: in vivo, po, 336 h, time 14 day
[16] = Acute toxicity in BALB/c mouse assessed as change in ALT level in blood at 100 mg/kg, ig administered as single dose measured after 14 days; format: organism-based; conditions: in vivo, po, 336 h, time 14 day
[17] = Terminal half life in Sprague-Dawley rat plasma at 15 mg/kg, po after 0.25 to 24 hrs by LC-MS analysis; format: ADME, organism-based; conditions: time 0.25-24 hrs, read-out: beta t1/2 (converted)
[18] = Acute toxicity in BALB/c mouse assessed as change in CKMB level in blood at 100 mg/kg, ig administered as single dose measured after 14 days; format: organism-based; conditions: in vivo, po, 336 h, time 14 day
in vivo [19] = conditions: Sprague-Dawley, rat, po, 15 mg/kg
[20] = Toxicity in BALB/c nude mouse xenografted with human HCT-116 cells assessed as body weight loss at 10 mg/kg, po administered twice a week for 19 days and measured every other day; format: organism-based; conditions: in vivo, 456 h, time 19 day
[21] = Oral bioavailability in Sprague-Dawley rat plasma at 15 mg/kg after 0.25 to 24 hrs by LC-MS analysis; format: ADME, organism-based; conditions: time 0.25-24 hrs
[22] = Acute toxicity in BALB/c mouse assessed as body weight loss at 100 mg/kg, ig administered as single dose measured every day for 14 days; format: organism-based; conditions: in vivo, po, 336 h, time 14 day
[23] = Acute toxicity in BALB/c mouse assessed as pathological damage in spleen at 100 mg/kg, ig administered as single dose measured after 14 days by hematoxylin and eosin staining method; format: organism-based; conditions: in vivo, po, 336 h, time 14 day
[24] = Acute toxicity in BALB/c mouse assessed as adverse effect at 100 mg/kg, ig administered as single dose measured every day for 14 days; format: organism-based; conditions: in vivo, po, 336 h, time 14 day
[25] = Acute toxicity in BALB/c mouse assessed as pathological damage in liver at 100 mg/kg, ig administered as single dose measured after 14 days by hematoxylin and eosin staining method; format: organism-based; conditions: in vivo, po, 336 h, time 14 day
HCT-116 [26] = experiment: Antitumor activity in human HCT-116 cells xenografted in BALB/c nude mouse assessed tumor growth inhibition at 20 mg/kg, po administered twice a week for 19 days and measured every measured every other day; format: functional; conditions: HCT-116, 456 h, time 19 day, read-out: TGI
[27] = Acute toxicity in BALB/c mouse assessed as change in UREA in blood at 100 mg/kg, ig administered as single dose measured after 14 days; format: organism-based; conditions: in vivo, po, 336 h, time 14 day
[28] = Cmax in Sprague-Dawley rat plasma at 15 mg/kg, po after 0.25 to 24 hrs by LC-MS analysis; format: ADME, organism-based; design: time lower 0.25 hrs, dose 15 mg/kg, time upper 24 hrs, route po
[29] = Clearance in Sprague-Dawley rat plasma at 5 mg/kg, iv after 0.083 to 24 hrs by LC-MS analysis; format: ADME, organism-based; conditions: time 0.083-24 hrs
in vivo [30] = conditions: Sprague-Dawley, rat, iv, 5 mg/kg
[31] = Toxicity in BALB/c nude mouse xenografted with human HCT-116 cells assessed as body weight loss at 5 mg/kg, po administered twice a week for 19 days and measured every other day; format: organism-based; conditions: in vivo, 456 h, time 19 day
[32] = Toxicity in BALB/c nude mouse xenografted with human HCT-116 cells assessed as body weight loss at 40 mg/kg, po administered twice a week for 19 days and measured every other day; format: organism-based; conditions: in vivo, 456 h, time 19 day
[33] = Acute toxicity in BALB/c mouse assessed as pathological damage in heart at 100 mg/kg, ig administered as single dose measured after 14 days by hematoxylin and eosin staining method; format: organism-based; conditions: in vivo, po, 336 h, time 14 day
Homo sapiens [34] = organism: Homo sapiens; conditions: filed as agonist
Description: Binding affinity to human CLpP Y138F/Q107A double mutant assessed as change in entropy by ITC method

HCT-116 [35] = conditions: Homo sapiens, dose 12.5-50 nM, time 14.0 day
Homo sapiens [36] = organism: Homo sapiens; conditions: filed as agonist; remark: listed apart in the source
Description: Binding affinity to human CLpP Y138F/Q107A double mutant assessed as change in enthalpy by ITC method

[37] = target: T1, ATP-dependent Clp protease proteolytic subunit, mitochondrial (Homo sapiens, UniProt Q16740); conditions: filed as agonist
T1 sequence (Q16740 whole entry): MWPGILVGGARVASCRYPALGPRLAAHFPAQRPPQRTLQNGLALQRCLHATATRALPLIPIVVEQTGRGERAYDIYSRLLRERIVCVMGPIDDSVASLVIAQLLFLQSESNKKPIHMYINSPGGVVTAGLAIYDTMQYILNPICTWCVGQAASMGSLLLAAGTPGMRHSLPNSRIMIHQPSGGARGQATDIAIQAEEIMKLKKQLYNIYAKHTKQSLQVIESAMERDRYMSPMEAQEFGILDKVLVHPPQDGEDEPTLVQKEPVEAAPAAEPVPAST
Description: Binding affinity to human CLpP assessed as change in enthalpy by ITC method

[38] = target: T1, ATP-dependent Clp protease proteolytic subunit, mitochondrial; conditions: filed as agonist; remark: listed apart in the source
Description: Binding affinity to human CLpP assessed as change in entropy by ITC method

[39] = target: T1, ATP-dependent Clp protease proteolytic subunit, mitochondrial; conditions: filed as agonist, dose 100.0 µM, time 30.0 min

SMILES: Cc1ccccc1CN1CCn2c1nc(=O)c1c2CCN(Cc2ccccc2)C1
- IC50 (A549): 2140 nM
- IC50 (SW480): 1100 nM
- IC50 (HCT-116 [1]): 400 nM
- Ratio IC50 (HCT-116 [2]): 10
- IC50 at 48 h [3]: > 50000 nM
- IC50 at 48 h [4]: > 50000 nM
- IC50 (Raji): 1060 nM
- IC50 (DLD-1): 520 nM
- IC50 (HT-29): 5300 nM
- IC50 (SW-620): 640 nM
- IC50 (HCT-15): 1280 nM
- IC50 (U-251): 2060 nM
- IC50 (MDA-MB-231): 10500 nM

SMILES: Cl.Cl.O.O=c1nc2n(c3c1CN(Cc1ccccc1)CC3)CCN2Cc1ccc(F)c(Br)c1
- MRT last [5]: 33.6 min
- inhibition in vivo at 10 mg/kg (HCT-116 [6]): 60%
- MRT last [7]: 77.4 min
- Activity [8]: Non-Toxic
- inhibition in vivo at 5 mg/kg (HCT-116 [9]): 56%
- Activity [10]: Non-Toxic
- Activity [11]: Non-Toxic
- Cmax [12]: 4010 ng/mL
- half-life [13]: 76.2 min
- Tmax [14]: 19.8 min
- Activity [15]: Non-Toxic
- Activity [16]: Non-Toxic
- half-life [17]: 61.8 min
- Activity [18]: Non-Toxic
- AUC(0-t) (in vivo [19]; plasma): 4270 ng·h/mL
- Activity [20]: 23.9%
- bioavailability [21]: 61.1%
- Activity [22]: Non-Toxic
- Activity [23]: Non-Toxic
- Activity [24]: Non-Toxic
- Activity [25]: Non-Toxic
- inhibition in vivo at 20 mg/kg (HCT-116 [26]): 69%
- Activity [27]: Non-Toxic
- Cmax [28]: 2790 ng/mL
- clearance [29]: 35.7 mL/min/kg
- AUC(0-t) (in vivo [30]; plasma): 2330 ng·h/mL
- Activity [31]: 27.7%
- Activity [32]: 25%
- Activity [33]: Non-Toxic

SMILES: Cc1ccccc1CN1C(=O)C2=C(CCN(Cc3ccccc3)C2)N2CCN=C12.Cl.Cl.O
- MRT last [5]: 51.6 min
- MRT last [7]: 87.6 min
- Cmax [12]: 2770 ng/mL
- half-life [13]: 54.6 min
- Tmax [14]: 25.2 min
- half-life [17]: 63 min
- AUC(0-t) (in vivo [19]; in vivo): 894 ng·h/mL
- bioavailability [21]: 15.2%
- Cmax [28]: 566 ng/mL
- clearance [29]: 42.7 mL/min/kg
- AUC(0-t) (in vivo [30]; in vivo): 1960 ng·h/mL

SMILES: O=c1nc2n(c3c1CN(Cc1ccccc1)CC3)CCN2Cc1ccc(F)c(Br)c1
- deltaS (Homo sapiens [34]): 54.3 J/mol.K
- inhibition (HCT-116 [35]): Active
- deltaH (Homo sapiens [36]): -2.73 kcal/mol
- deltaH [37]: -14.9 kcal/mol
- deltaS [38]: -77.4 J/mol.K
- ΔTm [39]: 20.9 °C
